Legend:
[1] = Light fastness: change in chromaticity ΔEab* of the coated glass substrate after xenon lamp irradiation; format: physicochemical; details: xenon lamp 50,000 Lux for 10 hours
Description: The glass substrate coated with the dye resist solution was irradiated with 50,000 Lux light from a xenon lamp for 10 hours (corresponding to 500,000 Lux·h) and then, a change in chromaticity, namely ΔEab* value, before and after the irradiation was measured. The obtained ΔEab* value was adopted as an index showing the degree of […] and evaluated based on the following criteria. The smaller the ΔEab* value is, the higher the […] is.
• A: ΔEab* was 3 or less. • B: ΔEab* exceeded 3 and was less than 10. • C: ΔEab* was 10 or more. —Pattern Shape—
A cyan pattern image was obtained by carrying out coating, prebaking, irradiation, developing, rinsing and drying in the same manner as in Example 1 and then heated at 180° C. for 5 minutes. Also, the heat resistance, light fastness and pattern shape were evaluated in the same manner as in Example 1 and also the solubility of the dye (exemplified compound (3)) was evaluated visually according to the same criteria as in Example 1 from the degree of solubility when the dye was dissolved in the above “1) Preparation of a dye resist solution (positive type dye-containing curable composition)”.

[2] = Heat resistance: change in chromaticity ΔEab* of the coated glass substrate after hot plate heating; format: physicochemical; details: 200° C. for one hour
Description: The glass substrate coated with the dye resist solution was placed on a hot plate such that its surface was in contact with the hot plate and heated at 200° C. for one hour to measure a change in chromaticity, namely ΔEab* value, before and after the substrate was placed, by using a chromaticity meter (trade name: MCPD-1000, manufactured by Otsuka Electronics Co., Ltd.). The obtained ΔEab* value was adopted as an index showing the degree of […] and evaluated based on the following criteria. The smaller the ΔEab* value is, the higher the heat resistance is.
• A: ΔEab* was 5 or less. • B: ΔEab* exceeded 5 and was less than 10. • C: ΔEab* was 10 or more. —Light Fastness—

[3] = positive type dye resist film on glass
[4] = negative type dye resist film on glass

| Compound | Light fastness [1, 3] | Heat resistance [2, 3] | Light fastness [1, 4] | Heat resistance [2, 4] |
| --- | --- | --- | --- | --- |
| Cc1cc(C)n(-c2ccc3c(c2)-c2nc-3nc3[n-]c(nc4nc(nc5[n-]c(n2)c2ccc(-n6nc(C)cc6C)cc52)-c2cc(-n5nc(C)cc5C)ccc2-4)c2ccc(-n4nc(C)cc4C)cc32)n1.[Ni+2] [Exemplified compound (16)] | A (ΔEab* was 3 or less.) | A (ΔEab* was 5 or less.) | – | – |
| Tetra-β-(3,5-dimethylpyrazolyl)zinc phthalocyanine [Exemplified compound (4)] | A (ΔEab* was 3 or less.) | A (ΔEab* was 5 or less.) | A (ΔEab* was 3 or less.) | A (ΔEab* was 5 or less.) |
| Tetra-α-(3,5-dimethylpyrazolyl)zinc phthalocyanine [Exemplified compound (3)] | A (ΔEab* was 3 or less.) | A (ΔEab* was 5 or less.) | A (ΔEab* was 3 or less.) | A (ΔEab* was 5 or less.) |

From patent publication US20050208394A1, “Dye-containing curable composition, color filter and method of producing the color filter” (FUJI PHOTO FILM CO., LTD., priority 2004, published 2005)
